# According to article PMC10791687, “The Piezo channel is a mechano-sensitive complex component in the mammalian inner ear hair cell” (Nature Communications, 2024):
# Target: T1, mPz1 (mouse Piezo1) (Mus musculus, UniProt E2JF22)
# T1 construct: full-length, mPz1-IRES-GFP plasmid (clone from A. Patapoutian) in mouse Neuro2A cells; also purified/enriched mPz1 in planar lipid bilayer; homotrimer
# Assay: single-channel recording in planar lipid bilayer
# Type: biochemical
# Conditions: purified mPz1, 500 mM KCl, 10 mM MOPS, pH 7.4
# T1 sequence (E2JF22 whole entry): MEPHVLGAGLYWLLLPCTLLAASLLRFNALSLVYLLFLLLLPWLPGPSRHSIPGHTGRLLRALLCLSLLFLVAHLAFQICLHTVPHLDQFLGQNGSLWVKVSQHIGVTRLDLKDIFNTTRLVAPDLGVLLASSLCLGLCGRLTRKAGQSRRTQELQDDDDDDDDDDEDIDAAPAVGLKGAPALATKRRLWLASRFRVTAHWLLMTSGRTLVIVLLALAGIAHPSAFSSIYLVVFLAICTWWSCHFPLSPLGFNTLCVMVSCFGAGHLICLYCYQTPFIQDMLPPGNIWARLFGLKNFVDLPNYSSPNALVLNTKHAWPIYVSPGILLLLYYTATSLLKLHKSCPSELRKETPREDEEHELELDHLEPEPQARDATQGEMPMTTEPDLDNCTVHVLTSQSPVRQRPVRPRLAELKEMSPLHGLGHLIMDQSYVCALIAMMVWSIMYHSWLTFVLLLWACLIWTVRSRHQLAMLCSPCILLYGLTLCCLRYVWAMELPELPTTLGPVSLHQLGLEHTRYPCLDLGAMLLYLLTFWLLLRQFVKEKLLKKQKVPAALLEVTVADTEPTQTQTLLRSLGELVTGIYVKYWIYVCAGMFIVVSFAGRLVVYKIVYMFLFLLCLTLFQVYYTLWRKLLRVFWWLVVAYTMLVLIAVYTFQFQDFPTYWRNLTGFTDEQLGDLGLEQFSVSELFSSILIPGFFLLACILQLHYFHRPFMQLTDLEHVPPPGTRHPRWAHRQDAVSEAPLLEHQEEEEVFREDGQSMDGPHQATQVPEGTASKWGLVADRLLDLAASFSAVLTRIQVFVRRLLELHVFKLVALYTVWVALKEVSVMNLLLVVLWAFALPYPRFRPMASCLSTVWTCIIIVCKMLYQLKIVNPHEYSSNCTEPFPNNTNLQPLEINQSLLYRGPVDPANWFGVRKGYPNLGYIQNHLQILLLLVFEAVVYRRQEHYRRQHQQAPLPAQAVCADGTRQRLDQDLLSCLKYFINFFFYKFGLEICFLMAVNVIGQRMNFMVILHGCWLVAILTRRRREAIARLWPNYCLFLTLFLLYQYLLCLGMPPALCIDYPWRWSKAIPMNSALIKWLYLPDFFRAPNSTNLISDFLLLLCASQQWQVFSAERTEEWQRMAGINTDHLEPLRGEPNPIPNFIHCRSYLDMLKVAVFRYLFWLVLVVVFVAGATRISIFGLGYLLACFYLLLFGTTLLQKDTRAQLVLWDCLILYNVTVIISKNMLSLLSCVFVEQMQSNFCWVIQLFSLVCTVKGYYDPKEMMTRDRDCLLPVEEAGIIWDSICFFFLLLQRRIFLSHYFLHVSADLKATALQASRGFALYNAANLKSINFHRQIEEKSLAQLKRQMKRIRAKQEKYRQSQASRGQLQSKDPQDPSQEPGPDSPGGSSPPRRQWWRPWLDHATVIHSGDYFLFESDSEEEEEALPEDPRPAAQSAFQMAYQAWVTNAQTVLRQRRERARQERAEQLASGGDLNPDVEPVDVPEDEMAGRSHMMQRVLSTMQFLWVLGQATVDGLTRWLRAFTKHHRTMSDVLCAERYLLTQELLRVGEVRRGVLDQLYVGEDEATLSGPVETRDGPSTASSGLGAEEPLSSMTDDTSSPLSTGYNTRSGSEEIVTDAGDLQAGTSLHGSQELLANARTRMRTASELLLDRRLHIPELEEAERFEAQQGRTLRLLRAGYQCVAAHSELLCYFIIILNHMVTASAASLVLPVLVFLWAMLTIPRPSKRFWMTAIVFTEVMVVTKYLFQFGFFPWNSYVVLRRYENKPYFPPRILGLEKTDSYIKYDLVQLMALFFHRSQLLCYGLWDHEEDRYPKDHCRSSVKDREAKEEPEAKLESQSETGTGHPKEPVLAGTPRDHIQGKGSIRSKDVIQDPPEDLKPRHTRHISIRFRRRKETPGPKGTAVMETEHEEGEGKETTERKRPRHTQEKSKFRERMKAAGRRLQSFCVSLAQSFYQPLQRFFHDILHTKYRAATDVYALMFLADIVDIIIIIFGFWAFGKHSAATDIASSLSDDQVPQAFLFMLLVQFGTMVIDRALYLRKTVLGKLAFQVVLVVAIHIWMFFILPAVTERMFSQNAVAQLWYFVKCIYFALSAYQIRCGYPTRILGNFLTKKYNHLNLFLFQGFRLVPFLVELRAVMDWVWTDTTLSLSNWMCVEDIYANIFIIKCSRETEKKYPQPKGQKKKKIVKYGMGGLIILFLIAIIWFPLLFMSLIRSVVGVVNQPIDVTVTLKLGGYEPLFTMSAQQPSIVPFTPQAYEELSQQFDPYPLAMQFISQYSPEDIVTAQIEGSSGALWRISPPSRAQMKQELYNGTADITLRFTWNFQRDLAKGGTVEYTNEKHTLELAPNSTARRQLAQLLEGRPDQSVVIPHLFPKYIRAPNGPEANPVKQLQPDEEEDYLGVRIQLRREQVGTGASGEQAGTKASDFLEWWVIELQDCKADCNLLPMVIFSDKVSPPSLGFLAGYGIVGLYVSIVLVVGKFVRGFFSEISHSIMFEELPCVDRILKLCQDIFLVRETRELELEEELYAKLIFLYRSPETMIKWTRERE
compound,measurement,value
CN[C@@H]1[C@H](O[C@H]2[C@H](O[C@H]3[C@H](O)[C@@H](O)[C@H](N=C(N)N)[C@@H](O)[C@@H]3N=C(N)N)O[C@@H](C)[C@]2(O)CO)O[C@@H](CO)[C@H](O)[C@H]1O [dihydrostreptomycin],single-channel recording in planar lipid bilayer,"DHS, GsMTx4, and ruthenium blocked the mPz1-channel activity in lipid bilayers"
